Test results taken from patent publication US5602100A, “Dermorphin analogs having pharmacological activity” (priority 1988, dated 1997).
Like-named read-outs stand apart in the source and are kept apart here. Non-standard residues stand in square brackets, D forms with d. Residues, ends and D or L forms follow the SMILES beside them. dNle = CCCC[C@@H](N)C(=O)O; dNva = CCC[C@@H](N)C(=O)O; Orn = NCCC[C@H](N)C(=O)O; Dab = NCC[C@H](N)C(=O)O; Nva = CCC[C@H](N)C(=O)O

Key:
[1] = target: T1, δ-opioid receptor (Rattus norvegicus, UniProt P33533); test: biochemical; type: binding
T1 construct: displacement of the radioligands from the rat brain membrane preparations; from tissue; host or cells: rat brain membrane preparations

[2] = tested on: guinea pig ileum (GPI); type: cell-based
[3] = tested on: mouse vas deferens (MVD); type: cell-based
[4] = tested on: guinea pig ileum (GPI); test: Ke values for naloxone as antagonist in the GPI assay; type: cell-based; conditions: mean of three determinations ± SEM
Protocol: κ-receptor interactions were determined by measuring Ke values for naloxone as an antagonist in the GPI assay. High Ke values (in the range of 20-30 nM) are associated with κ-receptor interactions. Low Ke values (in the range of 1-2 nM) are associated with μ-receptor interactions. Ke values for naloxone were determined from the ratio of IC50 values obtained in the presence of and in the absence of a fixed naloxone concentration. The IC50 values of the tested compounds were normalized according to published procedure (F. M. Leslie, "Methods Used for the Study of Opioid Receptors", Pharmacological Reviews, 39 (1987)).

[5] = tested on: PBQ-induced writhing; test: Mouse writhing test (PBQ); type: in vivo; conditions: for PBQ (20 min.) ED50: dose reducing the number of writhes by 50%
Protocol: The mouse writhing test detects both peripherally and centrally mediated analgesic effects. The test procedure is described in Siegmund et al., Proc. Soc. Exp. Biol. Med., 95, p. 729 (1957). In this test, a control group of albino mice was injected intraperitoneally with 0.3 ml/20 g body weight of a 0.02% solution of 2-phenyl-1,4-benzoquinone (PBQ). The writhing and contortional movements of the mice over the following 15 minutes were recorded. A second group of mice was given a dose of a synthetic dermorphin analog according to this invention, then allowed to wait a period of time before being administered the PBQ injection. The average number of writhes was then recorded and compared to the control group. The results of this test are expressed as the dosage of peptide that reduces the number of writhes by 50% at a given time interval (referred to as ED50).

[6] = tested on: PBQ-induced writhing; test: Mouse writhing test with prior N-methyllevallorphan (NML); type: in vivo; conditions: 10 mg/kg N-methyllevallorphan before peptide
Protocol: A variation of the mouse writhing experiment was also conducted to determine peripheral versus central binding preferences of certain peptides of this invention. In this experiment, 10 mg/kg of N-methyllevallorphan (NML), a known peripheral opioid antagonist, was administered to the mice before injection of the synthetic dermorphin peptide.

[7] = Respiration rate (respiratory depression); type: in vivo, rat; conditions: control 142 ± 5
Protocol: In addition to the mouse writhing data, respiratory depression was measured in certain treated mice. Respiratory depression is a commonly observed side effect characteristic of centrally-acting opiates. These reulsts are expressed in Table 5.

[8] = tested on: hot plate stimulus; test: Mouse hot plate test; type: in vivo; conditions: for Hot plate ED50: mouse, in vivo; for ratio of ED50 for PBQ assay over ED50 for the hot plate assay: peripheral/central activity ratio
Protocol: The mouse hot plate test is an assay which only detects centrally-mediated analgesic effects. This test was carried out using the protocol described in G. Woolfe and A. MacDonald, J. Pharmacol. Exp. Ther., 80, p. 300 ([…]).
Since most of the peptides of the invention were not potent centrally, it was impossible to determine an ED50 value. […] A result is considered insignificant if 30% of mice or lower have responded.

[9] = target: T2, μ-opioid receptor (Rattus norvegicus, UniProt P33535); test: biochemical; type: binding
T2 construct: displacement of the radioligands from the rat brain membrane preparations; from tissue; host or cells: rat brain membrane preparations
T2 sequence (P33535 whole entry): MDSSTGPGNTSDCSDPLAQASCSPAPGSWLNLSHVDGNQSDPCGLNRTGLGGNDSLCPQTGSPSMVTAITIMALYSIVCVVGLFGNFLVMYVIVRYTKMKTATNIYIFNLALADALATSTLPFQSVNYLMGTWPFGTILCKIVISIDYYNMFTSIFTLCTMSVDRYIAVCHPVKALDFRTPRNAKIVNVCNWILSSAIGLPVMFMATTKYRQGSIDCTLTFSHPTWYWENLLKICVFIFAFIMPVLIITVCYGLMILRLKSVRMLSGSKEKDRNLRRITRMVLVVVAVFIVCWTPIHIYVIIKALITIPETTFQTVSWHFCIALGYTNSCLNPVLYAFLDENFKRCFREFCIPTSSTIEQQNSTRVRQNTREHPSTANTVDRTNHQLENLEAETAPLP

T1 sequence (P33533 whole entry): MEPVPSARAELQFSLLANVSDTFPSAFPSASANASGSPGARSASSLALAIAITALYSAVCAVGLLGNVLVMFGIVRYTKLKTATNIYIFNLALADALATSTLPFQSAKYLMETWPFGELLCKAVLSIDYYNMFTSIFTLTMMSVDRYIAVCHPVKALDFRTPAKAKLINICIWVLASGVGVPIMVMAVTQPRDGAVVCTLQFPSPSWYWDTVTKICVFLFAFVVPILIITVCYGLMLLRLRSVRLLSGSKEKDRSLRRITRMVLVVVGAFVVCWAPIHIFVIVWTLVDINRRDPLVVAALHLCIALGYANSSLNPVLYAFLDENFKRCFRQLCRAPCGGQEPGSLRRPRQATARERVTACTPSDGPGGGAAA

Compound	IC50 [2] [nM]	IC50 [3] [nM]	Ke (naloxone) [4] [nm]	PBQ (20 min.) ED50 [5] [mg/kg]	Breaths per min. ([7]; dose 30 mg/kg) [breaths per min.]	Ki^δ /Ki^μ [9]	Ki [9] [nM]	Ki [1] [nM]	also measured
NCCCC[C@H](NC(=O)[C@H](Cc1ccccc1)NC(=O)[C@@H](CCCN=C(N)N)NC(=O)[C@@H](N)Cc1ccc(O)cc1)C(N)=O [BCH-150, H-Tyr-D-Arg-Phe-Lys-NH2]	338 ± 41	781 ± 146	1.17 ± 0.08	0.65	121 ± 6	–	–	–	Ki ([1]; read-out: [3H]HSLET Ki^δ): 19200 nM; Antagonism of antinociceptive effect by prior NML [6]: partially or totally antagonized; Hot plate ED50 [8]: 19 mg/kg
CCC[C@@H](NC(=O)[C@@H](N)Cc1ccc(O)cc1)C(=O)N[C@@H](Cc1ccccc1)C(=O)N[C@@H](CCCN)C(N)=O [BCH-752, H-Tyr-D-Nva-Phe-Orn-NH2] (H-Y[dNva]F[Orn]-NH2)	104 ± 15	271 ± 63	1.55 ± 0.23	0.2	122 ± 14	1880	–	–	Ki ([9]; read-out: [3H]DAGO Ki^μ): 1.17 nM; Ki ([1]; read-out: [3H]HSLET Ki^δ): 2200 nM; GPI relative potency [2]: 2.36 ± 0.33; MVD/GPI IC50 ratio [2]: 2.61; MVD relative potency [3]: 0.0420 ± 0.0098; Antagonism of antinociceptive effect by prior NML [6]: partially or totally antagonized; Hot plate ED50 [8]: 5.2 mg/kg; ratio of ED50 for PBQ assay over ED50 for the hot plate assay [8]: 26
CCCC[C@@H](NC(=O)[C@@H](N)Cc1ccc(O)cc1)C(=O)N[C@@H](Cc1ccccc1)C(=O)N[C@@H](CCCN)C(N)=O [BCH-1763, H-Tyr-D-Nle-Phe-Orn-NH2] (H-Y[dNle]F[Orn]-NH2)	168 ± 33	2290 ± 270	1.01 ± 0.18	0.3	162 ± 10	2130	–	–	Ki ([9]; read-out: [3H]DAGO Ki^μ): 1.35 nM; Ki ([1]; read-out: [3H]HSLET Ki^δ): 2870 nM; GPI relative potency [2]: 1.46 ± 0.29; MVD/GPI IC50 ratio [2]: 13.6; MVD relative potency [3]: 0.00498 ± 0.00058; % of animals showing a 50% increase ([8]; dose 40 mg/kg, time 120 min.): 90%
N=C(N)NCCC[C@@H](NC(=O)[C@@H](N)Cc1ccc(O)cc1)C(=O)N[C@@H](Cc1ccccc1)C(=O)N[C@@H](CCN)C(N)=O [BCH-1764, H-Tyr-D-Arg-Phe-A2 bu-NH2] (H-Y[dR]F[Dab]-NH2)	257 ± 56	659 ± 123	1.32 ± 0.05	0.13	–	2180	5.78	12600	GPI relative potency [2]: 0.956 ± 0.208; MVD/GPI IC50 ratio [2]: 2.56; MVD relative potency [3]: 0.0173 ± 0.0032; % of animals showing a 50% increase ([8]; dose 40 mg/kg, time 60 min.): 100%
N=C(N)NCCC[C@@H](NC(=O)[C@@H](N)Cc1ccc(O)cc1)C(=O)N[C@@H](Cc1ccccc1)C(=O)N[C@@H](CCCN)C(N)=O [BCH-1765, H-Tyr-D-Arg-Phe-Orn-NH2]	346 ± 121	1090 ± 279	1.24 ± 0.12	< 1	–	7740	–	–	Ki ([9]; read-out: [3H]DAGO Ki^μ): 1.2 nM; Ki ([1]; read-out: [3H]HSLET Ki^δ): 9290 nM; GPI relative potency [2]: 0.712 ± 0.249; MVD/GPI IC50 ratio [2]: 3.15; MVD relative potency [3]: 0.0105 ± 0.0027; % of animals showing a 50% increase ([8]; dose 40 mg/kg, time 120 min.): 100%
CCC[C@H](NC(=O)[C@H](Cc1ccccc1)NC(=O)[C@@H](CCCNC(=N)N)NC(=O)[C@@H](N)Cc1ccc(O)cc1)C(N)=O [BCH-1788, H-Tyr-D-Arg-Phe-Nva-NH2] (H-Y[dR]F[Nva]-NH2)	–	–	–	1.3	163 ± 9	> 216	11.7	> 2530	Breaths per min. ([7]; dose 100 mg/kg): 125 ± 4 breaths per min.; % of animals showing a 50% increase ([8]; dose 40 mg/kg, time 60 min.): 45%; % of animals showing a 50% increase ([8]; dose 100 mg/kg, time 60 min.): 60%
C[C@@H](NC(=O)[C@@H](N)Cc1ccc(O)cc1)C(=O)N[C@@H](Cc1ccccc1)C(=O)N[C@@H](CCCCN)C(N)=O [BCH-1789, H-Tyr-D-Ala-Phe-Lys-NH2] (H-Y[dA]FK-NH2)	–	–	–	0.6	182 ± 24	133	33.3	4430	% of animals showing a 50% increase ([8]; dose 40 mg/kg, time 120 min.): 40%; % of animals showing a 50% increase ([8]; dose 100 mg/kg, time 60 min.): 80%
CCC[C@@H](NC(=O)[C@@H](N)Cc1ccc(O)cc1)C(=O)N[C@@H](Cc1ccccc1)C(=O)N[C@@H](CCCCN)C(N)=O [BCH-2200, H-Tyr-D-Nva-Phe-Lys-NH2] (H-Y[dNva]FK-NH2)	–	–	–	0.3	–	> 1110	2.27	> 2530	Antagonism of antinociceptive effect by prior NML [6]: partially or totally antagonized
CCCC[C@@H](NC(=O)[C@@H](N)Cc1ccc(O)cc1)C(=O)N[C@@H](Cc1ccccc1)C(=O)N[C@@H](CCCCN)C(N)=O [BCH-2205, H-Tyr-D-Nle-Phe-Lys-NH2] (H-Y[dNle]FK-NH2)	–	–	–	1.8	158 ± 7	306	12.4	3800	Breaths per min. ([7]; dose 100 mg/kg): 150 ± 4 breaths per min.; % of animals showing a 50% increase ([8]; dose 40 mg/kg, time 30 min.): 60%; % of animals showing a 50% increase ([8]; dose 100 mg/kg, time 60 min.): 60%
CC(C)[C@@H](NC(=O)[C@@H](N)Cc1ccc(O)cc1)C(=O)N[C@@H](Cc1ccccc1)C(=O)N[C@@H](CCCCN)C(N)=O [BCH-2206, H-Tyr-D-Val-Phe-Lys-NH2] (H-Y[dV]FK-NH2)	–	–	–	4.8	168 ± 13	> 384	6.58	> 2530	% of animals showing a 50% increase ([8]; dose 40 mg/kg, time 120 min.): 30%; % of animals showing a 50% increase ([8]; dose 100 mg/kg, time 120 min.): 90%
CCC[C@@H](NC(=O)[C@@H](N)Cc1ccc(O)cc1)C(=O)N[C@@H](Cc1ccccc1)C(=O)N[C@@H](CCN)C(N)=O [BCH-2471, H-Tyr-D-Nva-Phe-A2 bu-NH2] (H-Y[dNva]F[Dab]-NH2)	–	–	–	0.2	–	790.51	0.56	441	% of animals showing a 50% increase ([8]; dose 40 mg/kg, time 60 min.): 100%
CCCC[C@@H](NC(=O)[C@@H](N)Cc1ccc(O)cc1)C(=O)N[C@@H](Cc1ccccc1)C(=O)N[C@@H](CCN)C(N)=O [BCH-2472, H-Tyr-D-Nle-Phe-A2 bu-NH2] (H-Y[dNle]F[Dab]-NH2)	–	–	–	0.8	–	207.88	10.2	2130	% of animals showing a 50% increase ([8]; dose 40 mg/kg, time 60 min.): 60%
CC(C)C[C@H](NC(=O)[C@H](Cc1ccccc1)NC(=O)CNC(=O)CNC(=O)[C@@H](N)Cc1ccc(O)cc1)C(=O)O [Leu-enkephalin, [Leu^5]enkephalin, reference compound]	–	–	1.53 ± 0.43	–	–	–	–	–	–
CN1CC[C@]23c4c5ccc(O)c4O[C@H]2[C@@H](O)C=C[C@H]3[C@H]1C5 [morphine, reference compound]	–	–	–	–	104 ± 6	–	–	–	ED50 ([5]; Mus musculus, 20 min, read-out: PBQ (20 min.) ED50, dose reducing the number of writhes by 50%): 0.6 mg/kg; Antagonism of antinociceptive effect by prior NML [6]: not antagonized; ED50 ([8]; Mus musculus): 2.7 mg/kg; ratio of ED50 for PBQ assay over ED50 for the hot plate assay [8]: 4.5
H-Tyr-D-Ala-Gly-Phe(NMe)-Gly-ol [DAGO, reference compound]	28 ± 3.7	950 ± 269	0.800 ± 0.100	–	–	–	–	–	–
